Counter-ions that a name gives are not always drawn. Like-named read-outs stand apart in the source and are kept apart here.
System: Aβ1-42 production
Experiment: Cellular assay for inhibition of Aβ1-42 production (H4 APP751 SWE clone 8.20)
Assay type: cell-based
Settings: H4 APP751 SWE clone 8.20 cells, 19 h incubation
Outline: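 Inhibition values are IC50s fitted to Viewlux counts after a 19 h compound exposure at 37 °C. Aβ42 was captured by the neoepitope-specific antibody 565 (0.8 ng/well) paired with N-terminal 26D6 (75 ng/well), incubated overnight at 4 °C in pH 7.4 Tris-HCl buffer containing 0.2% BSA.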

[1] = 19 h, class symbols, read-out: Activity Rating (Aβ42 cellular IC50)
[2] = class symbols, read-out: Activity Rating (Aβ42 cellular IC50)
[3] = 19 h, read-out: Activity Rating (Aβ42 cellular IC50), numeric value

Row | IC50 [1] | IC50 [2] | SMILES | other results
1 | 10 to 100 nM |  | COc1cc(Nc2nc(N[C@H](C)C3CC3)c3c(n2)C(c2ccc(F)cc2)OC3)ccc1-n1cnc(Cl)c1 (stereo partly drawn) [Example 81, N2-(4-(4-chloro-1H-imidazol-1-yl)-3-methoxyphenyl)-N4-((R)-1-cyclopropylethyl)-7-(4-fluorophenyl)-5,7-dihydrofuro[3,4-d]pyrimidine-2,4-diamine, TFA] | 
2 | 1.5 to 9.9 nM |  | [2H]C([2H])([2H])Nc1nc(Nc2ccc(-n3cnc(Cl)c3)c(OC)c2)nc2c1CCC2c1ccc(F)cc1 (stereo not shown) [Example 47, N^2-(4-(4-Chloro-1H-imidazol-1-yl)-3-methoxyphenyl)-7-(4-fluorophenyl)-N^4-trideuteromethyl-6,7-dihydro-5H-cyclopenta[d]pyrimidine-2,4-diamine] | 
3 |  | 10 to 100 nM | COc1cc(Nc2nc(N[C@H](C)C3CC3)c3c(n2)C(c2ccc(C(F)(F)F)cc2)COC3)ccc1-n1cnc(Cl)c1 (stereo partly drawn) [Example 117A, N2-(4-(4-chloro-1H-imidazol-1-yl)-3-methoxyphenyl)-N4-((R)-1-cyclopropylethyl)-8-(4-(trifluoromethyl)phenyl)-7,8-dihydro-5H-pyrano[4,3-d]pyrimidine-2,4-diamine] | 
4 |  | 100 to 1000 nM | Cc1ncnn1-c1ccc(Nc2nc3c(c(N4CC(F)(F)C4)n2)CCC3c2ccc(F)cc2)cc1F (single isomer, unassigned) [Example 16B, 4-(3,3-difluoroazetidin-1-yl)-N-(3-fluoro-4-(5-methyl-1H-1,2,4-triazol-1-yl)phenyl)-7-(4-fluorophenyl)-6,7-dihydro-5H-cyclopenta[d]pyrimidin-2-amine] | 
5 |  | 10 to 100 nM | CCNc1nc(Nc2ccc(-n3cnc(Cl)c3)c(OC)c2)nc2c1CCN(CC)C2c1ccc(F)cc1 (stereo not shown) [Example 169, N2-(4-(4-chloro-1H-imidazol-1-yl)-3-methoxyphenyl)-N4,7-diethyl-8-(4-fluorophenyl)-5,6,7,8-tetrahydropyrido[3,4-d]pyrimidine-2,4-diamine] | 
6 |  |  | CC[C@H](COC)Nc1nc(Nc2ccc(-n3cnc(Cl)c3)c(OC)c2)nc2c1CCC2c1ccc(F)cc1 (single isomer, unassigned) [Example 48B] | IC50 [3]: 130 nM
7 |  |  | C=CCC1(c2ccccc2)CCc2c(NCC)nc(Nc3ccc(-n4cnc(Cl)c4)c(OC)c3)nc21 (stereo not shown) [Example 111, N2-(4-(4-chloro-1H-imidazol-1-yl)-3-methoxyphenyl)-N4-ethyl-7-allyl-7-phenyl-6,7-dihydro-5H-cyclopenta[d]pyrimidine-2,4-diamine] | IC50 [3]: 35 nM
8 |  |  | COc1cc(Nc2nc3c(c(N4CCC(F)C4)n2)COCC3c2ccc(F)cc2)ccc1-n1cnc(Cl)c1 (stereo in doubt) [Example 58B, N-(4-(4-chloro-1H-imidazol-1-yl)-3-methoxyphenyl)-8-(4-fluorophenyl)-4-((S)-3-fluoropyrrolidin-1-yl)-7,8-dihydro-5H-pyrano[4,3-d]pyrimidin-2-amine] | IC50 [3]: 120 nM
9 | > 1000 nM |  | CNc1nc(Nc2ccc3[nH]ccc3c2)nc2c1CCC2c1ccccc1 (stereo not shown) [Example 251, N2-(1H-indol-5-yl)-N4-methyl-7-phenyl-6,7-dihydro-5H-cyclopenta[d]pyrimidine-2,4-diamine] | 
10 | 1.5 to 9.9 nM |  | CNc1nc(Nc2ccc(-n3ncnc3C)c(OC)c2)nc2c1CC[C@H]2c1ccc(F)cc1 (single isomer, unassigned) [Example 264A] | 
11 |  |  | Cc1ncnn1-c1ccc(Nc2nc3c(c(N(C)C)n2)COCC3c2ccc(Cl)cc2)cc1F (single isomer, unassigned) [Example 67B, 8-(4-chlorophenyl)-N^2-(3-fluoro-4-(5-methyl-1H-1,2,4-triazol-1-yl)phenyl)-N^4,N^4-dimethyl-7,8-dihydro-5H-pyrano[4,3-d]pyrimidine-2,4-diamine] | IC50 [3]: 540 nM
12 | 10 to 100 nM |  | CNc1nc(Nc2ccc(-n3cnc(Cl)c3)c(OC)c2)nc2c1COCC2c1ccc(F)cc1 (stereo not shown) [Example 60B, N2-(4-(4-chloro-1H-imidazol-1-yl)-3-methoxyphenyl)-8-(4-fluorophenyl)-N4-methyl-7,8-dihydro-5H-pyrano[4,3-d]pyrimidine-2,4-diamine] | 
13 | 10 to 100 nM |  | CNc1nc(Nc2ccc(-n3cnc(C)n3)c(OC)c2)nc2c1CCC2c1ccc(C(F)(F)F)nc1 (stereo not shown) [Example 276, N2-(3-methoxy-4-(3-methyl-1H-1,2,4-triazol-1-yl)phenyl)-N4-methyl-7-(6-(trifluoromethyl)pyridin-3-yl)-6,7-dihydro-5H-cyclopenta[d]pyrimidine-2,4-diamine] | 
14 |  | 10 to 100 nM | CNc1nc(Nc2ccc(-n3ncnc3C)c(F)c2)nc2c1CCC2c1ccc(F)cc1 (single isomer, unassigned) [Example 26B, N^2-(3-fluoro-4-(5-methyl-1H-1,2,4-triazol-1-yl)phenyl)-7-(4-fluorophenyl)-N^4-methyl-6,7-dihydro-5H-cyclopenta[d]pyrimidine-2,4-diamine] | 
15 | 1.5 to 9.9 nM |  | CCNc1nc(Nc2ccc(-n3cnc(Cl)c3)c(OC)c2)nc2c1CN(C)CC2c1ccccc1 (stereo not shown) [Example 151, N2-(4-(4-chloro-1H-imidazol-1-yl)-3-methoxyphenyl)-N4-ethyl-6-methyl-8-phenyl-5,6,7,8-tetrahydropyrido[4,3-d]pyrimidine-2,4-diamine] | 
16 |  | 10 to 100 nM | COc1cc(Nc2nc3c(c(N4CCCC4C)n2)CCC3c2ccc(F)cc2)ccc1-n1cnc(Cl)c1 (single isomer, unassigned) [Example 19A, N-(4-(4-chloro-1H-imidazol-1-yl)-3-methoxyphenyl)-7-(4-fluorophenyl)-4-(2-methylpyrrolidin-1-yl)-6,7-dihydro-5H-cyclopenta[d]pyrimidin-2-amine] | 
17 | 10 to 100 nM |  | COc1cc(Nc2nc3c(c(N4CCN(C)CC4)n2)CCC3c2ccc(F)cc2)ccc1-n1cnc(Cl)c1 (stereo not shown) [Example 30, N-(4-(4-chloro-1H-imidazol-1-yl)-3-methoxyphenyl)-7-(4-fluorophenyl)-4-(4-methylpiperazin-1-yl)-6,7-dihydro-5H-cyclopenta[d]pyrimidin-2-amine] | 
18 |  | 10 to 100 nM | CCNc1nc(Nc2ccc(-n3cnc(Cl)c3)c(OC)c2)nc2c1COCC2c1cc(F)cc(F)c1 (stereo not shown) [Example 112B, N2-(4-(4-chloro-1H-imidazol-1-yl)-3-methoxyphenyl)-8-(3,5-difluorophenyl)-N4-ethyl-7,8-dihydro-5H-pyrano[4,3-d]pyrimidine-2,4-diamine] | 
19 | 10 to 100 nM |  | CCNc1nc(Nc2ccc(-n3ncnc3C)c(F)c2)nc2c1CN(S(C)(=O)=O)CC2c1ccc(F)cc1 (stereo not shown) [Example 157, N4-ethyl-N2-(3-fluoro-4-(5-methyl-1H-1,2,4-triazol-1-yl)phenyl)-6-(methylsulfonyl)-8-(4-fluorophenyl)-5,6,7,8-tetrahydropyrido[4,3-d]pyrimidine-2,4-diamine] | 
20 |  |  | CNc1nc(Nc2ccc(-c3cccnc3)c(OC)c2)nc2c1CCC2c1ccccc1 (stereo not shown) [Example 263, N2-(3-methoxy-4-(pyridin-3-yl)phenyl)-N4-methyl-7-phenyl-6,7-dihydro-5H-cyclopenta[d]pyrimidine-2,4-diamine] | IC50 [3]: 32 nM
21 | 10 to 100 nM |  | COc1cc(Nc2nc3c(c(N4CCC(F)C4)n2)CCOC3c2ccc(F)cc2)ccc1-n1cnc(Cl)c1 (stereo in doubt) [Example 90A, N-(4-(4-chloro-1H-imidazol-1-yl)-3-methoxyphenyl)-8-(4-fluorophenyl)-4-((R)-3-fluoropyrrolidin-1-yl)-6,8-dihydro-5H-pyrano[3,4-d]pyrimidin-2-amine] | 
22 | 10 to 100 nM |  | CCN(C)c1nc(Nc2ccc(-n3cnc(Cl)c3)c(OC)c2)nc2c1COCC2c1ccc(F)cc1 (racemic) [Example 62, N2-(4-(4-chloro-1H-imidazol-1-yl)-3-methoxyphenyl)-N4-ethyl-8-(4-fluorophenyl)-N4-methyl-7,8-dihydro-5H-pyrano[4,3-d]pyrimidine-2,4-diamine] | 
23 | 10 to 100 nM |  | CNc1nc(Nc2ccc(-n3ncnc3C)c(F)c2)nc2c1CCC2c1ccc(F)cc1 (single isomer, unassigned) [Example 26A, N^2-(3-fluoro-4-(5-methyl-1H-1,2,4-triazol-1-yl)phenyl)-7-(4-fluorophenyl)-N^4-methyl-6,7-dihydro-5H-cyclopenta[d]pyrimidine-2,4-diamine] | 
24 |  | 1.5 to 9.9 nM | CNc1nc(Nc2ccc(-n3cnc(C)c3)c(OC)c2)nc2c1COCC2c1ccc(Cl)cc1 (single isomer, unassigned) [Example 70A, 8-(4-chlorophenyl)-N^2-(3-methoxy-4-(4-methyl-1H-imidazol-1-yl)phenyl)-N^4-methyl-7,8-dihydro-5H-pyrano[4,3-d]pyrimidine-2,4-diamine] | 
25 |  | 1.5 to 9.9 nM | COc1cc(Nc2nc3c(c(N4CCCC4C)n2)CCC3c2ccc(F)cc2)ccc1-n1cnc(Cl)c1 (single isomer, unassigned) [Example 20, N-(4-(4-chloro-1H-imidazol-1-yl)-3-methoxyphenyl)-7-(4-fluorophenyl)-4-(2-methylpyrrolidin-1-yl)-6,7-dihydro-5H-cyclopenta[d]pyrimidin-2-amine] | 
26 |  | 10 to 100 nM | COc1cc(Nc2nc3c(c(N4CC(C)(O)C4)n2)CCC3c2ccc(F)cc2)ccc1-n1cnc(Cl)c1 (stereo not shown) [Example 189B, 1-(2-(4-(4-chloro-1H-imidazol-1-yl)-3-methoxyphenylamino)-7-(4-fluorophenyl)-6,7-dihydro-5H-cyclopenta[d]pyrimidin-4-yl)-3-methylazetidin-3-ol] | 
27 |  | 10 to 100 nM | COc1cc(Nc2nc3c(c(N(C)C)n2)CCC3c2ccc(F)c(F)c2)ccc1-n1cnc(Cl)c1 (single isomer, unassigned) [Example 95B, N^2-(4-(4-chloro-1H-imidazol-1-yl)-3-methoxyphenyl)-7-(3,4-difluorophenyl)-N^4,N^4-dimethyl-6,7-dihydro-5H-cyclopenta[d]pyrimidine-2,4-diamine] | 
28 | 1.5 to 9.9 nM |  | [2H]C([2H])([2H])Nc1nc(Nc2ccc(-n3cnc(Cl)c3)c(OC)c2)nc2c1CCC2c1ccccc1 (stereo not shown) [Example 176, N^2-(4-(4-Chloro-1H-imidazol-1-yl)-3-methoxyphenyl)-N^4-trideuteromethyl-7-phenyl-6,7-dihydro-5H-cyclopenta[d]pyrimidine-2,4-diamine] | 

Source: patent US8637525B2, “Compounds for the reduction of beta-amyloid production” (Bristol-Myers Squibb Company, priority 2009, dated 2014)
